Laboratory results from patent US20240059673A1, “SUBSTITUTED INDOLE COMPOUNDS” (Gilead Sciences, Inc., priority 2020, published 2024).

Tests used:
TLR9 = target: T1, TLR9 (Homo sapiens, UniProt Q9NR96); assay: Human PBMC cell-based assay, TLR9 agonist stimulation; details: human PBMCs; TLR9 agonist ODN-2216 3 μM; 6 hours; cytokines (IL-6 and IFNα) in supernatant; Table 2; read-out: TLR-9 EC50
T1 construct: lymphocytes, monocytes and dendritic cells that express TLR7, TLR8 and TLR9; endogenous in cells; host or cells: cryopreserved human PBMCs from healthy donors
T1 sequence (Q9NR96 26-1032): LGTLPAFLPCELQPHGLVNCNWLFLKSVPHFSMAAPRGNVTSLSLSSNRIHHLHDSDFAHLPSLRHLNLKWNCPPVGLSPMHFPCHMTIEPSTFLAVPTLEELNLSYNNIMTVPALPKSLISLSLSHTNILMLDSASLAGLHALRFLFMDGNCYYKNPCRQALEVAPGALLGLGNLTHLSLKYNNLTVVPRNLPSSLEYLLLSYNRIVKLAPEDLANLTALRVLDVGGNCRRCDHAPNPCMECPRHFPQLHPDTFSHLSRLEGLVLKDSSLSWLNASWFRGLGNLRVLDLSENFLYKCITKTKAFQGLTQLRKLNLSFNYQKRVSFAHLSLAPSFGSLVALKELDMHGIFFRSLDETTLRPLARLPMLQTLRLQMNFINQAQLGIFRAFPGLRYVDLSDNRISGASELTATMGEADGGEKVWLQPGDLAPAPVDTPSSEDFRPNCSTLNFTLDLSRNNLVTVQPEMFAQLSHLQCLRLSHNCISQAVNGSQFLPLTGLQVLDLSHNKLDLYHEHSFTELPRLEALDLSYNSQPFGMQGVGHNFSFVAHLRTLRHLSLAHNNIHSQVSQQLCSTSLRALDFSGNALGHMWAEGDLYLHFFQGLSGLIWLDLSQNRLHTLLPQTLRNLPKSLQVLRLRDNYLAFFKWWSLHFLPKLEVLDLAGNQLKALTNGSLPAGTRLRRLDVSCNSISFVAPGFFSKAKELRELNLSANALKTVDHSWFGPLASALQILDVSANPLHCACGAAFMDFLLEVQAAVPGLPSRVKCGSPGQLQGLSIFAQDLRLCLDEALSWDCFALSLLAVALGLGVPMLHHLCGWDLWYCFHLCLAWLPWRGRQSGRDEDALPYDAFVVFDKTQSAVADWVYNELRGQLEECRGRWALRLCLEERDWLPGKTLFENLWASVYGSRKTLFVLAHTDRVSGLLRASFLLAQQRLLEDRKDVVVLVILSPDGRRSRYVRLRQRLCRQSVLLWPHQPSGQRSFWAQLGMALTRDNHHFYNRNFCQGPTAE
Description: (§1) Human Peripheral Blood Mononuclear Cell (PBMC) Cell-Based Assay
(§2) Human peripheral blood mononuclear cells (PBMCs) consist of lymphocytes, monocytes and dendritic cells that express TLR7, TLR8 and TLR9. These cells respond to TLR7, TLR8 and TLR9 ligand stimulation and produce cytokines and chemokines in vitro and in vivo. Human PBMCs are therefore suitable to be used in a cell-based assay to assess the in vitro potency of a TLR 7, 8, and/or 9 antagonist. The result is expected to be more translatable to the pharmacodynamics response in vivo than cell line-based assays.
(§3) Cryopreserved human PBMCs from healthy donors were thawed and resuspended in RPMI-1640 media with L-glutamine (Corning) supplemented with 10% Fetal Bovine Serum (Hyclone) and 1× Penicillin-Streptomycin (Corning). After counting, the cell density was adjusted to 2 million cells/ml and incubated for 1 hour at 37° C., 5% CO2 for recovery. Following the recovery, the cells were plated by adding 50p per well (100,000 cells) to 384-well cell culture plates (Greiner) containing 250 nl of test antagonists in 100% DMSO per well, in a 10 points dose response in quadruplicates. PBMCs were incubated in the presence of test antagonists for one hour at 37° C., 5% CO2 before being stimulated with a TLR7 or TLR9 agonist. GS-986 (Gilead Sciences) was used as the TLR7 agonist at a final concentration of 400 nM. ODN-2216 (InvivoGen) was used as the TLR9 agonist at a final concentration of 3μM. PBMCs were incubated in the presence of the test antagonist and the TLR7 (or TLR9) agonist for an additional 6 hours at 37° C., 5% CO2. At the end of the incubation, the cell culture plates were centrifuged at 500 g for 5 min, and the cell culture supernatant was collected. The level of cytokines (IL-6 and IFNα) in the supernatant was measured by electrochemiluminescence immunoassays (Mesoscale Discovery) following manufacturer's recommended protocols. The level of cytokine measured was plotted against the test antagonist concentration and fitted to a sigmoidal function to determine the EC50, which are shown below in Table 2.

TLR7 = target: T2, TLR7 (Homo sapiens, UniProt Q9NYK1); assay: Human PBMC cell-based assay, TLR7 agonist stimulation; details: human PBMCs; TLR7 agonist GS-986 400 nM; 6 hours; cytokines (IL-6 and IFNα) in supernatant; Table 2; read-out: TLR-7 EC50
T2 construct: lymphocytes, monocytes and dendritic cells that express TLR7, TLR8 and TLR9; endogenous in cells; host or cells: cryopreserved human PBMCs from healthy donors
T2 sequence (Q9NYK1 27-1049): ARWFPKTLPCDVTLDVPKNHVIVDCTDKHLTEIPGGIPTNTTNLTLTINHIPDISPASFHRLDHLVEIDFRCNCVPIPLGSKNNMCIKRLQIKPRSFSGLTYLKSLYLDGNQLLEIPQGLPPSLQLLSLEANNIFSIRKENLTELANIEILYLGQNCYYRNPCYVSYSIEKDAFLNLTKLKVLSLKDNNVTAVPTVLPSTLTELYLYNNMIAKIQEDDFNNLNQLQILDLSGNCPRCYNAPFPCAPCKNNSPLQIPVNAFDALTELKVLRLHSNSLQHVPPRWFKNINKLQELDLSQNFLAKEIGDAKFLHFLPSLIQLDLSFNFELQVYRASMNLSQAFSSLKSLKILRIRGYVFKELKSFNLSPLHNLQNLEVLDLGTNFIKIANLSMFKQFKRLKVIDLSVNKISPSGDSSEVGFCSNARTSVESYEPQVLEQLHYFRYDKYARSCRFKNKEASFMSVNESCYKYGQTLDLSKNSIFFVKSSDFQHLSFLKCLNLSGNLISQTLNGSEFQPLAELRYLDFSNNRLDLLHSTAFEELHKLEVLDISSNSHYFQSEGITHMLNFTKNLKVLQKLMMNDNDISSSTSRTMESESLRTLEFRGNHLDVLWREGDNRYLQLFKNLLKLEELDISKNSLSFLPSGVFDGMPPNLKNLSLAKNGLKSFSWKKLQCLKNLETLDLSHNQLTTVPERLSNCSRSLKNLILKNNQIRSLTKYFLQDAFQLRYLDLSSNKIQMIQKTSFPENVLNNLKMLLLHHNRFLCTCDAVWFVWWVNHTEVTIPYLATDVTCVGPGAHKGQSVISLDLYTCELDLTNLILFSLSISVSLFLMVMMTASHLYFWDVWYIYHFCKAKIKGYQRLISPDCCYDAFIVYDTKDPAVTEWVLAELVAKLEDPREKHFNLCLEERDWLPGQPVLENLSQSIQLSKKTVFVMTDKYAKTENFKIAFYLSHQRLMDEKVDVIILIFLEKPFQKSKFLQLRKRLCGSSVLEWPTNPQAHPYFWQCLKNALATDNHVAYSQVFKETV
Description: as §1, §2, §3

Row | Compound | EC50 (TLR9) | EC50 (TLR7)
1 | Cc1c(-c2cnc(N3CCNCC3)nc2)[nH]c2cc(-c3cc(C)c4ncnn4c3)ccc12 [Example 3] | 0.169 µM | 0.0027 µM
2 | Cc1cc(-c2ccc3c(C)c(-c4ccc(N5CCNCC5)nc4)[nH]c3c2)ccn1 [Example 5] | 0.0693 µM | 0.0044 µM
3 | Cc1noc(C)c1-c1ccc2c(C)c(-c3ccc(N4CCNCC4)nc3)[nH]c2c1 [Example 6] | 2.07 µM | 0.442 µM
4 | Cc1c(-c2ccc(N3CCNCC3)nc2)[nH]c2cc(-c3ccnc4ccccc34)ccc12 [Example 8] | 0.367 µM | 0.144 µM
5 | Cc1c(-c2ccc(N3CCNCC3)nc2)[nH]c2cc(-c3cn[nH]c3)ccc12 [Example 9] | 0.467 µM | 0.463 µM
6 | COc1ccc(-c2ccc3c(C)c(-c4ccc(N5CCNCC5)nc4)[nH]c3c2)cc1OC [Example 10] | 0.518 µM | 0.0588 µM
7 | Cc1cc(-c2ccc3c(C)c(C4=CCNCC4)[nH]c3c2)cc(C)n1 [Example 11, 6-(2,6-dimethylpyridin-4-yl)-3-methyl-2-(1,2,3,6-tetrahydropyridin-4-yl)-1H-indole] | 0.0701 µM | 0.686 µM
8 | CCc1c(-c2ccc(N3CCNCC3)nc2)[nH]c2cc(-c3cc(C)nc(C)c3)ccc12 [Example 12] | 0.0478 µM | 0.0062 µM
9 | CCN1CCC(c2[nH]c3cc(-c4cc(C)nc(C)c4)ccc3c2C)CC1 [Example 13, 6-(2,6-dimethylpyridin-4-yl)-2-(1-ethylpiperidin-4-yl)-3-methyl-1H-indole] | 0.174 µM | > 1 µM
10 | CCc1c(-c2cnc(N3CCNCC3)nc2)[nH]c2cc(-c3cc(C)nc(C)c3)ccc12 [Example 14] | 0.0371 µM | 0.0062 µM
11 | Cc1cc(-c2ccc3c(C)c(-c4ccc(S(=O)(=O)N5CCNCC5)cc4)[nH]c3c2)cc(C)n1 [Example 15] | 0.202 µM | 0.509 µM
12 | Cc1cc(-c2ccc3c(C)c(-c4cnc5c(c4)CNCC5)[nH]c3c2)cc(C)n1 [Example 16, 3-[6-(2,6-dimethyl-4-pyridyl)-3-methyl-1H-indol-2-yl]-5,6,7,8-tetrahydro-1,6-naphthyridine] | 0.0279 µM | 0.0679 µM
13 | Cc1cc(-c2ccc3c(C)c(-c4cccc(C(=O)N[C@@H]5CCNC5)c4)[nH]c3c2)cc(C)n1 [Example 17, (R)-3-(6-(2,6-dimethylpyridin-4-yl)-3-methyl-1H-indol-2-yl)-N-(pyrrolidin-3-yl)benzamide] | 0.422 µM | 0.193 µM
14 | Cc1cc(-c2ccc3c(C)c(-c4cccc(C(=O)N[C@H]5CCNC5)c4)[nH]c3c2)cc(C)n1 [Example 18] | 0.0978 µM | 0.336 µM
15 | Cc1cc(-c2ccc3c(C)c(-c4ccc(C(=O)N[C@@H]5CCNC5)cc4)[nH]c3c2)cc(C)n1 [Example 19] | 0.43 µM | 0.328 µM
16 | Cc1cc(-c2ccc3c(C)c(-c4ccc(C(=O)N[C@H]5CCNC5)cc4)[nH]c3c2)cc(C)n1 [Example 20] | 0.244 µM | 0.291 µM
17 | Cc1cc(-c2ccc3c(C)c(-c4ccc(C(=O)N5CCNCC5)cc4)[nH]c3c2)cc(C)n1 [Example 21] | 0.0836 µM | 0.127 µM
18 | Cc1cc(-c2ccc3c(C)c(-c4cccc(C(=O)N5CCNCC5)c4)[nH]c3c2)cc(C)n1 [Example 22, (3-(6-(2,6-dimethylpyridin-4-yl)-3-methyl-1H-indol-2-yl)phenyl)(piperazin-1-yl)methanone] | 0.0613 µM | 0.0666 µM
19 | Cc1cc(-c2ccc3c(C)c(C4CCN(C(=O)CN(C)C)CC4)[nH]c3c2)cc(C)n1 [Example 24, 2-(dimethylamino)-1-(4-(6-(2,6-dimethylpyridin-4-yl)-3-methyl-1H-indol-2-yl)piperidin-1-yl)ethan-1-one] | 0.131 µM | > 1 µM
20 | Cc1cc(-c2ccc3c(C)c(C4CCN(C(=O)c5cccnc5)CC4)[nH]c3c2)cc(C)n1 [Example 25] | 2.83 µM | > 1 µM
21 | Cc1cc(-c2ccc3c(C)c(C4CCN(C(=O)CC5CCNCC5)CC4)[nH]c3c2)cc(C)n1 [Example 26] | 1.3 µM | > 1 µM
22 | Cc1cc(-c2ccc3c(C)c(C4CCN(C(=O)c5cncn5C)CC4)[nH]c3c2)cc(C)n1 [Example 27] | 3.39 µM | > 1 µM
23 | Cc1cc(-c2cnc3c(C)c(-c4ccc(N5CCNCC5)cc4)[nH]c3c2)cc(C)n1 [Example 28, 6-(2,6-dimethylpyridin-4-yl)-3-methyl-2-(4-(piperazin-1-yl)phenyl)-1H-pyrrolo[3,2-b]pyridine] | 0.134 µM | 0.0283 µM
24 | Cc1cc(-c2cnc3c(C)c(-c4ccc(N5CCNCC5)nc4)[nH]c3c2)cc(C)n1 [Example 29] | 0.0774 µM | 0.0147 µM
25 | Cc1cc(-c2ccc3c(C)c(-c4ccc(N5CCN(CCO)CC5)nc4)[nH]c3c2)cc(C)n1 [Example 30, 2-(4-(5-(6-(2,6-dimethylpyridin-4-yl)-3-methyl-1H-indol-2-yl)pyridin-2-yl)piperazin-1-yl)ethan-1-ol] | 0.0378 µM | 0.0102 µM
